Experimental data as given in patent publication US20100166859A1, “NOVEL NUTRACEUTICAL COMPOSITIONS AND USE THEREOF” (priority 2006, published 2010).
Where a SMILES comes first, the peptide text is derived from it. [ ]: non-standard residue; d: D form. ξ: configuration not given here. ξP = O=C(O)C1CCCN1

Experiments:
[1] = target: AMPA receptor; test: [3H] AMPA radioligand binding assay; details: displacement of 5 nM [3H] AMPA, rat cerebral cortex membranes, 25° C., 90 min; semi-quantitative, duplicates
Method: Polypeptides or amino acid compositions of the instant invention were tested for the ability to bind to the AMPA receptor using a previously validated [3H] AMPA radioligand to binding assay (see, for example Olsen R W, Szamraj O, Houser C R Brain Res. 1987; 402(2):243-54.). Upon binding, the peptide is displacing the parent radioligand from the glutamate binding site of the AMPA receptor. Binding inhibition of 50% or more is generally considered as significant.
The membrane has been prepared as described in example 1.
Frozen pellets were thawed at room temperature and washed three times by resuspension in 50 mM Tris-acetate (pH 7.4) and centrifugation. Final pellets were suspended at concentrations of 2 to 3 mg/ml in 50 mM Tris-HCl (pH 7.4, 200 mM KSCN). Binding reactions were initiated by the addition of 200 μg of freshly prepared membranes to reaction mixtures (about 1 ml final volume) containing 5 nM [3H] AMPA at 25° C. in the presence of a range of peptide concentrations (0.5 μM, 1 μM, 10 μM, 100 μM and 200 μM). Incubation time was 90 min. Non-specific binding was determined using 1000 μM unlabelled L-Glutamic acid. […]
(§1) Assay results are presented as the % inhibition of specific binding. […] Semi-quantitative follow-up to estimate IC50 was done in duplicates at the indicated peptide concentrations.

[2] = tested on: AMPA receptor; test: Whole cell patch-clamp on CA1 pyramidal cells in brain slices, synaptic AMPA responses; type: cell-based, C57BL/6 mice
Method: Whole cell patch-clamp experiments were performed in parasagital brain slices on CAI pyramidal cells. The animals used for this study were C57BL/6 mice. After decapitation of the mice brains were quickly removed and placed in aerated (95% O2, 5% CO2) artificial cerebrospinal fluid (ASCF) solution at 4° C. The ACSF solution was composed of (mM): 124 NaCl, 2.5 KCl, 1.3 MgCl2, 26 NaHCO3, 1.25 NaH2PO4, 2.5 CaCl2 […] Synaptic AMPA responses were evoked every 10 seconds with a bipolar platinum electrode and recorded in the voltage clamp configuration with 4-5 MΩ patch pipette at a holding potential of −60 mV. Baseline recordings were performed with 100 μM picrotoxin in the ACSF. After establishing a stable synaptic AMPA response the tripeptide EPP (140 μM) was added to the bath, continuing the recording for an additional 20 to 30 minutes. At the end of every experiment NBQX (20 μM) was bath applied to block the AMPA response. The residual trace was subtracted from the previous recordings to show only the AMPA current. […]
Parameters measured to estimate the action of EPP were the holding current, amplitude, and initial slope of the AMPA responses. Additionally the amplitude ratio and initial slope ratio of the two AMPA responses from the paired pulse experiments was determined.

[3] = target: glycine co-agonist site on the NMDA receptor (Rattus norvegicus, UniProt P35439); test: [3H] MDL-105519 radioligand binding assay, glycine co-agonist site of the NMDA receptor; details: displacement of 0.33 nM [3H] MDL-105519, rat cerebral cortex membranes
Method: Polypeptides or amino acid compositions of the instant invention were tested for the ability to bind to the glycine co-agonist site on the NMDA receptor using a previously validated [3H] MDL-105519 radioligand binding assay (see, for example Siegel B W, Sreekrishna K, Baron B M. Eur J Pharmacol. 1996 Oct. 3; 312(3):357-65). Upon binding, the peptide is displacing the parent radioligand from the NR1a binding site of the NMDA receptor. Binding inhibition of 50% or more is generally considered as significant.
Crude synaptic membranes used in the assay were prepared using rat cerebral cortex tissue (male Wistar rats) and extensively washed using the procedures described previously (Haring et al., 1991, J. Neurochem. 57:323-331). Briefly, tissue which has been stored at −80° C. was homogenized in ice-cold 5 mM Tris (pH 7.4) using a Polytron and then pelleted by centrifugation at 48,000 g for 20 minutes. The resulting supernatant was discarded, and the membranes washed three times in cold buffer. […]
Frozen pellets were thawed at room temperature and washed three times by resuspension in 50 mM Tris-acetate (pH 7.4) and centrifugation. […] Non-specific binding was determined using 10 μM unlabelled MDL-105519. […]
as §1

Question: Which results are given for `NC(CCC(=O)O)C(=O)N1CCCC1C(=O)N1CCCC1C(=O)O` (stereo not drawn) [EPP] (H-Glu-Pro-Pro-OH; configuration not given here)?
Answer: IC50 [1]: 14 µM; amplitude of the first synaptic AMPA response ([2]; 140 μM EPP in bath, baseline −83.9±14.1 pA, p<0.05, holding potential −60 mV): −130.6±22.6 pA; change in slope of the AMPA response ([2]; 140 μM EPP versus baseline, p=0.06): just failed to reach significance

Question: With `NCC(=O)NCC(=O)N1CCCC1C(=O)O` (stereo not drawn) [GGP] (H-Gly-Gly-[ξP]-OH) as the compound, how does the IC50 ([3]; 4° C., 30 min, semi-quantitative, duplicates) read?
Answer: 11.3 µM

Question: How did the IC50 ([3]; reference compound) turn out when `O=C(O)/C(=C/c1c(C(=O)O)[nH]c2cc(Cl)cc(Cl)c12)c1ccccc1` [MDL-105519, reference compound] was run?
Answer: 0.0096 µM
